Results on two molecules are retold here after patent publication US12110295B2, “WD40 repeat domain protein 5 (WDR5) degradation/disruption compounds and methods of use” (Icahn School of Medicine at Mount Sinai, priority 2018, dated 2024).

The assay concerns the target WDR5 (Homo sapiens, UniProt P61964). Conditions: MV4;11 cells, summary of FIGS. 1-3.

Structures are written as SMILES.

Experimental: MV4;11 cells were treated with DMSO or indicated compounds at 1 μM and 10 μM for 18 hours.
MV4;11 cells were treated with DMSO or indicated compounds at 0.1 μM, 0.5 μM, 1 μM, 5 μM, and 10 μM for 18 hours.
MV4;11 cells were treated with DMSO or indicated compounds at a fixed concentration of 0.5 μM for 1, 2, 4, 8, 16, or 24 hours.
MV4;11 cells were treated with DMSO or indicated compounds at 0.1 μM and 0.5 μM for 18 hours. […] MV4;11 cells were treated with DMSO or indicated compounds at 0.1 μM and 1.0 μM for 18 hours.
WDR5 degraders were dissolved in DMSO and DMSO with no degraders was used as the control. 1×10^6 MV4;11 cells or 1×10^5 MIAPACA2 or 2×10^5 Hela cells were seeded in 2 mL medium for each well in 24-well plates.
For prescreening of all the compounds, each test compound was added to the medium at indicated concentrations. After 18 h treatment, cells were collected.
After 18 h treatment, cells were collected.
And cells were collected at indicated timepoints: 1 h, 2 h, 4 h, 8 h, 16 h, and 24 h.
After WDR5 degrader treatment, cells were collected and lysed. Total cell lysates were used for western blot. The following primary antibodies were used: WDR5 (Santa Cruz), vinculin (Cell Signaling Technology), tubulin (Cell Signaling Technology), GAPDH (Santa Cruz). Blots were imaged using fluorescence-labeled secondary antibodies on ChemiDoc™ Imaging Systems.

In the case of `CN1CCN(c2ccc(-c3cccc(CN4CCN(CCNC(=O)CCOCCOCCOCCOCCOCCNc5cccc6c5C(=O)N(C5CCC(=O)NC5=O)C6=O)CC4)c3)cc2NC(=O)c2c[nH]c(=O)cc2C(F)(F)F)CC1` (centres unmarked) [XF048-145, N-(3′-((4-(1-((2-(2,6-dioxopiperidin-3-yl)-1,3-dioxoisoindolin-4-yl)amino)-18-oxo-3,6,9,12,15-pentaoxa-19-azahenicosan-21-yl)piperazin-1-yl)methyl)-4-(4-methylpiperazin-1-yl)-[1,1′-biphenyl]-3-yl)-6-oxo-4-(trifluoromethyl)-1,6-dihydropyridine-3-carboxamide], the “reduction of WDR5 protein levels in a concentration- and time-dependent manner” value is listed as “effective in reducing WDR5 protein levels”.

For `CN1CCN(c2ccc(-c3cccc(CN4CCN(CCNC(=O)CCOCCOCCNc5cccc6c5C(=O)N(C5CCC(=O)NC5=O)C6=O)CC4)c3)cc2NC(=O)c2c[nH]c(=O)cc2C(F)(F)F)CC1` (centres unmarked) [XF048-142, N-(3′-((4-(2-(3-(2-(2-((2-(2,6-dioxopiperidin-3-yl)-1,3-dioxoisoindolin-4-yl)amino)ethoxy)ethoxy)propanamido)ethyl)piperazin-1-yl)methyl)-4-(4-methylpiperazin-1-yl)-[1,1′-biphenyl]-3-yl)-6-oxo-4-(trifluoromethyl)-1,6-dihydropyridine-3-carboxamide], the “reduction of WDR5 protein levels in a concentration- and time-dependent manner” value is listed as “effective in reducing WDR5 protein levels”.
